Reference: patent US12378243B2, “Quinoline compounds as inhibitors of KRAS” (Incyte Corporation, priority 2021, dated 2025)

Legend:
KRAS G12D = KRAS G12D (Homo sapiens, UniProt P01116, G12D); test: GDP-GTP exchange assay, KRAS G12D; format: biochemical; details: bodipy-loaded KRAS G12D 2.5 nM, GppNHp 500 uM, SOS1 150 nM; 4 hours pre-incubation, 2 hours incubation; read-out: G12D_exchange
Outline: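 Nucleotide exchange started with 1 mM GppNHp and 300 nM SOS1, then 2 h at ambient temperature. IC50 from four-parameter logistic fit with variable Hill slope.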

KRAS G12V mutant = KRAS G12V mutant (Homo sapiens, UniProt P01116, G12V); test: GDP-GTP exchange assay, KRAS G12V; format: biochemical; details: bodipy loaded KRAS G12V 2.5 nM; 3 hours incubation after adding GppNHp-SOS1 mixture; read-out: G12V_exchange
Chain of KRAS G12V mutant (P01116 1-188 isoform P01116-2 G12V): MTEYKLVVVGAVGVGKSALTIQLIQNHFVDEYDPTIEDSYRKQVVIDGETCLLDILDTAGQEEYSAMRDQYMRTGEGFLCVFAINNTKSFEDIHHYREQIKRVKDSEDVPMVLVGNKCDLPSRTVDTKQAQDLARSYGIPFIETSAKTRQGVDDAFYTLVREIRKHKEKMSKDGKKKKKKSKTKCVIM

Caco-2 cells = test: Caco2 assay (permeability, A-B); format: in vitro ADME; details: Table 4; Papp absorptive direction (A-B), test compound 50 μM, 120 minutes at 37° C.
Outline: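 Caco-2 monolayers grown 22-25 days on Transwells, used only at TEER ≥300 Ω·cm^2. Compound at 50 μM in HBSS added apically, receiver HBSS with 4% BSA; 120 min at 37 °C. LCMS quantification; Papp from receiver flux slope, membrane area and initial donor amount.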

Chain of KRAS G12D (P01116 1-188 isoform P01116-2 G12D): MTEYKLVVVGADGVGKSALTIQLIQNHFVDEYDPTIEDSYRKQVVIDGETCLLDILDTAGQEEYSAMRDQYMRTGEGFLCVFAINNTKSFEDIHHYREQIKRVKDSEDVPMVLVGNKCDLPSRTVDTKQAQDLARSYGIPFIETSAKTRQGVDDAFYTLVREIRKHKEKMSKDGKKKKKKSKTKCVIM

With `C[C@H](c1cc2c(-c3ccc(C(C)(C)O)nc3)nc3c(F)c(-c4cccc5ccc(F)cc45)c(CCC#N)cc3c2n1[C@H]1[C@H]2CN[C@@H]1C2)N1CCOCC1=O` [Example 46, 3-(1-((1R,4R,5S)-2-Azabicyclo[2.1.1]hexan-5-yl)-6-fluoro-7-(7-fluoronaphthalen-1-yl)-4-(6-(2-hydroxypropan-2-yl)pyridin-3-yl)-2-((R)-1-(3-oxomorpholino)ethyl)-1H-pyrrolo[3,2-c]quinolin-8-yl)propanenitrile] as the compound, how does the IC50 (KRAS G12D) read?
Its IC50 is less than 100 nM.

What about the IC50 (KRAS G12V mutant) of the same compound?
Its IC50 is less than 100 nM.

And the Caco-2 (Caco-2 cells)?
Its Caco-2 is “+++ (a Caco-2 value of >1)”.

For `Cc1cnc(-c2nc3c(F)c(-c4cccc5ccc(F)cc45)c(CCC#N)cc3c3c2cc([C@@H](C)N2CCOCC2=O)n3[C@H]2[C@H]3CN[C@@H]2C3)cn1` [Example 47, 3-(1-((1R,4R,5S)-2-Azabicyclo[2.1.1]hexan-5-yl)-6-fluoro-7-(7-fluoronaphthalen-1-yl)-4-(5-methylpyrazin-2-yl)-2-((R)-1-(3-oxomorpholino)ethyl)-1H-pyrrolo[3,2-c]quinolin-8-yl)propanenitrile], which IC50 (KRAS G12D) is on record?
The IC50 was less than 100 nM.

What about the IC50 (KRAS G12V mutant) of the same compound?
The IC50 was less than 100 nM.

And the Caco-2 (Caco-2 cells)?
The Caco-2 was “+++ (a Caco-2 value of >1)”.

Which IC50 (KRAS G12D) does the source give for `COC(=O)N1[C@@H](c2cc3c(-c4ccc(C(=O)N(C)C)nc4)nc4c(F)c(-c5cccc(Cl)c5Cl)c(CCC#N)cc4c3n2[C@H]2[C@H]3CN[C@@H]2C3)C[C@H]2C[C@H]21` [Example 48, Methyl (1R,3R,5R)-3-(1-((1R,4R,5S)-2-azabicyclo[2.1.1]hexan-5-yl)-8-(2-cyanoethyl)-7-(2,3-dichlorophenyl)-4-(6-(dimethylcarbamoyl)pyridin-3-yl)-6-fluoro-1H-pyrrolo[3,2-c]quinolin-2-yl)-2-azabicyclo[3.1.0]hexane-2-carboxylate] here?
Its IC50 is less than 100 nM.

And the IC50 (KRAS G12V mutant)?
The IC50 was less than 100 nM.

And the Caco-2 (Caco-2 cells)?
Its Caco-2 is “++ (a Caco-2 value of >0.5 but ≤1)”.

`Cc1nc2c(F)c(-c3cccc(Cl)c3Cl)c(CCC#N)cc2c2c1cc([C@H]1C[C@H]3C[C@H]3N1C(=O)C1CC1)n2[C@H]1[C@H]2CN[C@@H]1C2` [Example 49, 3-(1-((1R,4R,5S)-2-Azabicyclo[2.1.1]hexan-5-yl)-2-((1R,3R,5R)-2-(cyclopropanecarbonyl)-2-azabicyclo[3.1.0]hexan-3-yl)-7-(2,3-dichlorophenyl)-6-fluoro-4-methyl-1H-pyrrolo[3,2-c]quinolin-8-yl)propanenitrile] was tested. Which IC50 (KRAS G12D) did it give?
The IC50 was less than 100 nM.

What about the IC50 (KRAS G12V mutant) of the same compound?
Its IC50 is less than 100 nM.

What about the Caco-2 (Caco-2 cells) of the same compound?
The Caco-2 was “+++ (a Caco-2 value of >1)”.

Which results are given for `C[C@H](c1cc2c(-c3ccc(C(C)(C)O)nc3)nc3c(F)c(-c4cccc(Cl)c4Cl)c(CCC#N)cc3c2n1[C@H]1[C@H]2CN[C@@H]1C2)n1ccncc1=O` [Example 50, 3-(1-((1R,4R,5S)-2-Azabicyclo[2.1.1]hexan-5-yl)-7-(2,3-dichlorophenyl)-6-fluoro-4-(6-(2-hydroxypropan-2-yl)pyridin-3-yl)-2-((R)-1-(2-oxopyrazin-1(2H)-yl)ethyl)-1H-pyrrolo[3,2-c]quinolin-8-yl)propanenitrile]?
IC50 (KRAS G12D): < 100 nM; IC50 (KRAS G12V mutant): < 100 nM; Caco-2 (Caco-2 cells): +++ (a Caco-2 value of >1)

For `COC(=O)N1C[C@@H](F)C[C@@H]1c1cc2c(-c3ccc(C(C)(C)O)nc3)nc3c(F)c(-c4cccc(Cl)c4Cl)c(CCC#N)cc3c2n1[C@H]1[C@H]2CN[C@@H]1C2` [Example 51, Methyl (2R,4S)-2-(1-((1R,4R,5S)-2-azabicyclo[2.1.1]hexan-5-yl)-8-(2-cyanoethyl)-7-(2,3-dichlorophenyl)-6-fluoro-4-(6-(2-hydroxypropan-2-yl)pyridin-3-yl)-1H-pyrrolo[3,2-c]quinolin-2-yl)-4-fluoropyrrolidine-1-carboxylate], which IC50 (KRAS G12D) is on record?
Its IC50 is less than 100 nM.

What about the IC50 (KRAS G12V mutant) of the same compound?
The IC50 was less than 100 nM.

And the Caco-2 (Caco-2 cells)?
Its Caco-2 is “+++ (a Caco-2 value of >1)”.

How did the IC50 (KRAS G12D) turn out when `COC(=O)N1[C@H](C)CC[C@@H]1c1cc2c(-c3ccc(C(C)(C)O)nc3)nc3c(F)c(-c4cccc(Cl)c4Cl)c(CCC#N)cc3c2n1[C@H]1[C@H]2CN[C@@H]1C2` [Example 52, Methyl (2R,5R)-2-(1-((1R,4R,5S)-2-azabicyclo[2.1.1]hexan-5-yl)-8-(2-cyanoethyl)-7-(2,3-dichlorophenyl)-6-fluoro-4-(6-(2-hydroxypropan-2-yl)pyridin-3-yl)-1H-pyrrolo[3,2-c]quinolin-2-yl)-5-methylpyrrolidine-1-carboxylate] was run?
Its IC50 is less than 100 nM.

What about the IC50 (KRAS G12V mutant) of the same compound?
The IC50 was less than 100 nM.

And the Caco-2 (Caco-2 cells)?
The Caco-2 was “+++ (a Caco-2 value of >1)”.

Which results are given for `COC(=O)N1CCC[C@@H]1c1c(Cl)c2c(-c3ccc(C(C)(C)O)nc3)nc3c(F)c(-c4cccc(Cl)c4Cl)c(CCC#N)cc3c2n1[C@H]1[C@H]2CN[C@@H]1C2` [Example 53, Methyl (2R)-2-(1-((1R,4R,5S)-2-azabicyclo[2.1.1]hexan-5-yl)-3-chloro-8-(2-cyanoethyl)-7-(2,3-dichlorophenyl)-6-fluoro-4-(6-(2-hydroxypropan-2-yl)pyridin-3-yl)-1H-pyrrolo[3,2-c]quinolin-2-yl)pyrrolidine-1-carboxylate]?
IC50 (KRAS G12D): < 100 nM; IC50 (KRAS G12V mutant): < 100 nM; Caco-2 (Caco-2 cells): +++ (a Caco-2 value of >1)

For `COC(=O)N[C@H](C)c1cc2c(C)nc3c(F)c(-c4cccc(Cl)c4Cl)c(CCC#N)cc3c2n1[C@H]1[C@H]2CN[C@@H]1C2` [Example 55, Methyl ((1R)-1-(1-((1R,4R,5S)-2-azabicyclo[2.1.1]hexan-5-yl)-8-(2-cyanoethyl)-7-(2,3-dichlorophenyl)-6-fluoro-4-methyl-1H-pyrrolo[3,2-c]quinolin-2-yl)ethyl)carbamate], which IC50 (KRAS G12D) is on record?
The IC50 was less than 100 nM.

And the IC50 (KRAS G12V mutant)?
Its IC50 is less than 100 nM.

What about the Caco-2 (Caco-2 cells) of the same compound?
The Caco-2 was “+++ (a Caco-2 value of >1)”.

Which results are given for `Cc1nc2c(F)c(-c3cccc(Cl)c3Cl)c(CCC#N)cc2c2c1cc([C@@H](C)NC(=O)C(F)F)n2[C@H]1[C@H]2CN[C@@H]1C2` [Example 56, N-((1R)-1-(1-((1R,4R,5S)-2-Azabicyclo[2.1.1]hexan-5-yl)-8-(2-cyanoethyl)-7-(2,3-dichlorophenyl)-6-fluoro-4-methyl-1H-pyrrolo[3,2-c]quinolin-2-yl)ethyl)-2,2-difluoroacetamide]?
IC50 (KRAS G12D): < 100 nM; IC50 (KRAS G12V mutant): < 100 nM; Caco-2 (Caco-2 cells): +++ (a Caco-2 value of >1)

`Cc1nc2c(F)c(-c3cccc(Cl)c3Cl)c(CCC#N)cc2c2c1cc([C@@H](C)NC(=O)[C@@H]1CCCO1)n2[C@H]1[C@H]2CN[C@@H]1C2` [Example 57, (2S)—N-((1R)-1-(1-((1R,4R,5S)-2-Azabicyclo[2.1.1]hexan-5-yl)-8-(2-cyanoethyl)-7-(2,3-dichlorophenyl)-6-fluoro-4-methyl-1H-pyrrolo[3,2-c]quinolin-2-yl)ethyl)tetrahydrofuran-2-carboxamide] was tested. Which IC50 (KRAS G12D) did it give?
Its IC50 is less than 100 nM.

What about the IC50 (KRAS G12V mutant) of the same compound?
Its IC50 is less than 100 nM.

What about the Caco-2 (Caco-2 cells) of the same compound?
Its Caco-2 is “+++ (a Caco-2 value of >1)”.

`Cc1nc2c(F)c(-c3cccc(Cl)c3Cl)c(CCC#N)cc2c2c1cc([C@@H](C)NS(=O)(=O)C1CC1)n2[C@H]1[C@H]2CN[C@@H]1C2` [Example 58, N-((1R)-1-(1-((1R,4R,5S)-2-Azabicyclo[2.1.1]hexan-5-yl)-8-(2-cyanoethyl)-7-(2,3-dichlorophenyl)-6-fluoro-4-methyl-1H-pyrrolo[3,2-c]quinolin-2-yl)ethyl)cyclopropanesulfonamide] was tested. Which IC50 (KRAS G12D) did it give?
Its IC50 is less than 100 nM.

What about the IC50 (KRAS G12V mutant) of the same compound?
The IC50 was less than 100 nM.

What about the Caco-2 (Caco-2 cells) of the same compound?
The Caco-2 was “++ (a Caco-2 value of >0.5 but ≤1)”.

Which IC50 (KRAS G12D) does the source give for `Cc1nc2c(F)c(-c3cccc(Cl)c3Cl)c(CCC#N)cc2c2c1cc([C@@H](C)NC(=O)c1cscn1)n2[C@H]1[C@H]2CN[C@@H]1C2` [Example 59, N-((1R)-1-(1-((1R,4R,5S)-2-Azabicyclo[2.1.1]hexan-5-yl)-8-(2-cyanoethyl)-7-(2,3-dichlorophenyl)-6-fluoro-4-methyl-1H-pyrrolo[3,2-c]quinolin-2-yl)ethyl)thiazole-4-carboxamide] here?
Its IC50 is less than 100 nM.

And the IC50 (KRAS G12V mutant)?
The IC50 was less than 100 nM.

What about the Caco-2 (Caco-2 cells) of the same compound?
Its Caco-2 is “+++ (a Caco-2 value of >1)”.

Which IC50 (KRAS G12D) does the source give for `Cc1nc2c(F)c(-c3cccc(Cl)c3Cl)c(CCC#N)cc2c2c1cc([C@@H](C)N(C)C(=O)C1CC1)n2[C@H]1[C@H]2CN[C@@H]1C2` [Example 60, N-((1R)-1-(1-((1R,4R,5S)-2-Azabicyclo[2.1.1]hexan-5-yl)-8-(2-cyanoethyl)-7-(2,3-dichlorophenyl)-6-fluoro-4-methyl-1H-pyrrolo[3,2-c]quinolin-2-yl)ethyl)-N-methylcyclopropanecarboxamide] here?
The IC50 was less than 100 nM.

And the IC50 (KRAS G12V mutant)?
Its IC50 is 100 to 1000 nM.

And the Caco-2 (Caco-2 cells)?
The Caco-2 was “+++ (a Caco-2 value of >1)”.

Which results are given for `CC(O)c1nc2c(F)c(-c3cccc(Cl)c3Cl)c(CCC#N)cc2c2c1cc([C@@H](C)NC(=O)C1(C)CC1)n2[C@H]1[C@H]2CN[C@@H]1C2` (stereo partly drawn) [Example 61, N-((1R)-1-(1-((1R,4R,5S)-2-Azabicyclo[2.1.1]hexan-5-yl)-8-(2-cyanoethyl)-7-(2,3-dichlorophenyl)-6-fluoro-4-(1-hydroxyethyl)-1H-pyrrolo[3,2-c]quinolin-2-yl)ethyl)-1-methylcyclopropane-1-carboxamide]?
IC50 (KRAS G12D): < 100 nM; IC50 (KRAS G12V mutant): < 100 nM; Caco-2 (Caco-2 cells): ++ (a Caco-2 value of >0.5 but ≤1)

For `CC(O)c1nc2c(F)c(-c3cccc(Cl)c3Cl)c(CCC#N)cc2c2c1cc([C@H]1C[C@H]3C[C@H]3N1C(=O)C1(C)CC1)n2[C@H]1[C@H]2CN[C@@H]1C2` (stereo partly drawn) [Example 62, 3-(1-((1R,4R,5S)-2-Azabicyclo[2.1.1]hexan-5-yl)-7-(2,3-dichlorophenyl)-6-fluoro-4-(1-hydroxyethyl)-2-((1R,3R,5R)-2-(1-methylcyclopropane-1-carbonyl)-2-azabicyclo[3.1.0]hexan-3-yl)-1H-pyrrolo[3,2-c]quinolin-8-yl)propanenitrile], which IC50 (KRAS G12D) is on record?
Its IC50 is less than 100 nM.

What about the IC50 (KRAS G12V mutant) of the same compound?
The IC50 was less than 100 nM.

What about the Caco-2 (Caco-2 cells) of the same compound?
The Caco-2 was “+++ (a Caco-2 value of >1)”.
